Assays:
[1] = system: MDA-MB-436 cells (BRCA1 mutation); assay: Anti-proliferation assay on MDA-MB-436 cells (BRCA1 mutation); assay type: cell-based; details: Homo sapiens, MDA-MB-436, 168 h; incubated for 7 days, chemiluminescent cell viability; read-out: IC50, proliferation inhibition on MDA-MB-436 cells (BRCA1 mutation)
Description: MDA-MB-436 cells (BRCA1 mutation) were seeded in black 96-well plates with clear bottoms. Each well contained 135 μL of cell suspension with 3,500 MDA-MB-436 cells (BRCA1 mutation). The cell plate was incubated overnight in a CO2 incubator. A 400× stock solution of the test compound was prepared. […] 78 μL of medium was added to an intermediate plate. Subsequently, 2 μL of the serially diluted compound per well was transferred to the corresponding wells of the intermediate plate. 2 μL of DMSO was added to the vehicle control and blank control. After mixing well, 15 μL of the mixture per well was then transferred to the cell plate. […] The cell plate was incubated for 7 days in a CO2 incubator. The cell plate was removed and equilibrated to room temperature for 30 minutes. 75 μL of chemiluminescent cell viability assay reagent was added to each well. The cell plate was shaken on an orbital shaker for 3 minutes to induce cell lysis, followed by 10 minutes of incubation at room temperature to stabilize the luminescent signal.

[2] = molecular target: PARP1 (Homo sapiens (Human), UniProt P09874); assay: Binding activity between compound and PARP1, fluorescence polarization assay; details: 8 nM PARP1, 5 nM fluorescent probe, 4 hours at room temperature
Description: The fluorescence polarization assay was performed in 96-well black-walled plates (Greiner). The reaction buffer consisted of 50 mM Tris (pH 8), 0.001% Triton X100, 10 mM MgCl2, and 150 mM NaCl. Both the fluorescent probe and His-Avi-tagged PARP1 protein were manufactured by WuXi AppTec (Shanghai). In a 100 μL reaction system, 8 nM PARP1, 5 nM fluorescent probe, and the compounds were added respectively. The compound concentration was prepared following the starting concentration and dilution gradient in Table 1. […] The test sample was incubated at room temperature for 4 hours, protected from light. Fluorescence polarization values were measured using an En Vision plate reader. The obtained fluorescence polarization values and compound concentrations were subjected to nonlinear fitting using GraphPad 8.0 software to determine the IC50 values.

[3] = molecular target: PARP2 (Homo sapiens (Human), UniProt Q9UGN5); assay: Binding activity between compound and PARP2, fluorescence polarization assay; details: 3 nM PARP2, 5 nM fluorescent probe, 4 hours at room temperature
Description: The fluorescence polarization assay was performed in 96-well black-walled plates (Greiner). The reaction buffer consisted of 50 mM Tris (pH 8), 0.001% Triton X100, 10 mM MgCl2, and 150 mM NaCl. Both the fluorescent probe and His-Avi-tagged PARP2 protein were manufactured by WuXi AppTec (Shanghai). In a 100 μL reaction system, 3 nM PARP2, 5 nM fluorescent probe, and the compounds were added respectively. The compound concentration was prepared following the starting concentration and dilution gradient in Table 2. The test sample was incubated at room temperature for 4 hours, protected from light. Fluorescence polarization values were measured using an EnVision plate reader. The obtained fluorescence polarization values and compound concentrations were subjected to nonlinear fitting using GraphPad 8.0 software to determine the IC50 values.

[4] = In vitro liver microsomal stability, human liver microsomes
Description: (§1) The concentration of the compound in the samples was determined by LC-MS/MS.
(§2) Experimental process: The incubation was performed using 96-well incubation plates, with individual plates labeled as T0, T5, T15, T30, T45, T60, Blank60, and NCF60. The reaction time points corresponding to the incubation plates were set at 0, 5, 15, 30, 45, and 60 minutes. In the Blank60 plate, no test compound or control compound was added, and the sample was collected after 60 minutes of incubation. In the NCF60 plate, potassium phosphate buffer was used in place of the NADPH regeneration system and incubated for 60 minutes. All time point samples were taken from individual wells.
For the T0, T5, T15, T30, T45, T60, and NCF60 plates, 5 μL of either the test or control compound working solution and 100 μL of microsomal working solution (with a liver microsomal protein concentration of 0.5 mg/mL) were added. Only microsomal working solution was added to the Blank60 well. In the Blank60 plate, only the microsomal working solution was added. Then, the incubation plates, except for TO and NCF60, including Blank60, T5, T15, T30, T45, and T60, were pre-incubated in a 37° C. water bath for approximately 10 minutes.
For samples in the TO plate, 180 μL of stop solution (where the stop solution was a solution of acetonitrile and methanol (95:5, V/V) containing 100 ng/mL tolbutamide) was added before adding the NADPH regeneration system working solution.
50 μL of potassium phosphate buffer was added to each well of the NCF60 plate and incubated for 60 minutes.
After the pre-incubation of Blank60, T5, T15, T30, T45, and T60 incubation plates, 44 μL of NADPH regeneration system working solution was added to each sample well to initiate the reaction. Therefore, for sample wells containing either the test compound or the control compound working solutions, the final reaction concentration was 1 μM, with the concentration of liver microsomes at 0.5 mg/mL. The final concentrations of DMSO and acetonitrile in the reaction system were 0.01% (v/v) and 0.99% (v/v), respectively.
After incubation for an appropriate period (e.g., 5, 15, 30, 45, and 60 minutes), 180 μL of stop solution was added to each test compound and control compound sample well in the Blank60, T5, T15, T30, T45, T60, and NCF60 plates to stop the reaction.
All sample plates were shaken thoroughly and centrifuged for 10 minutes. A volume of 80 μL of the supernatant from each test compound was diluted to 240 L with a solution of acetonitrile (1:9, v/v) containing 0.1% formic acid for LC-MS/MS analysis.

[5] = system: DLD1 (BRCA2 KO) cells; assay: Anti-proliferation assay on DLD1 cells (BRCA2 KO); assay type: cell-based; details: Homo sapiens, DLD-1, 168 h; incubated for 7 days, chemiluminescent cell viability
Description: DLD1 (BRCA2 KO) cells were seeded in white a 96-well plate with 80 μL of cell suspension per well, containing 1,000 DLD1 (BRCA2 KO) cells per well. The cell plate was incubated overnight in a CO2 incubator. The test compounds were 5-fold diluted with a multi-channel pipette to the 8th concentration, i.e., diluted from 2 mM to 0.0256 μM, and duplicate experiment was set. 78 μL of medium was added to an intermediate plate. Subsequently, 2 μL of the serially diluted compound per well was transferred to the corresponding wells of the intermediate plate and mixed well. 20 μL of the mixture per well was then transferred to the cell plate. The concentration of the compound transferred to the cell plate ranged from 10 μM to 0.128 nM. The cell plate was incubated for 7 days in a CO2 incubator. An additional cell plate was prepared to read the signal value on the day of compound addition, which served as the maximum value (Max in the following equation) for data analysis. The cell plate was added with 25 μL of chemiluminescent cell viability assay reagent per well and incubated at room temperature for 10 minutes to stabilize the luminescent signal. A multimode microplate reader was used for reading. […].

[6] = In vitro liver microsomal stability, mouse liver microsomes
Description: as §1, §2
For the T0, T5, T15, T30, T45, T60, and NCF60 plates, 5 μL of either the test or control compound working solution and 100 μL of microsomal working solution (with a liver microsomal protein concentration of 0.5 mg/mL) were added. Only microsomal working solution was added to the Blank60 well. In the Blank60 plate, only the microsomal working solution was added. Then, the incubation plates, except for TO and NCF60, including Blank60, T5, T15, T30, T45, and T60, were pre-incubated in a 37° C. water bath for approximately 10 minutes. […]

Chain of PARP1 (P09874 whole entry): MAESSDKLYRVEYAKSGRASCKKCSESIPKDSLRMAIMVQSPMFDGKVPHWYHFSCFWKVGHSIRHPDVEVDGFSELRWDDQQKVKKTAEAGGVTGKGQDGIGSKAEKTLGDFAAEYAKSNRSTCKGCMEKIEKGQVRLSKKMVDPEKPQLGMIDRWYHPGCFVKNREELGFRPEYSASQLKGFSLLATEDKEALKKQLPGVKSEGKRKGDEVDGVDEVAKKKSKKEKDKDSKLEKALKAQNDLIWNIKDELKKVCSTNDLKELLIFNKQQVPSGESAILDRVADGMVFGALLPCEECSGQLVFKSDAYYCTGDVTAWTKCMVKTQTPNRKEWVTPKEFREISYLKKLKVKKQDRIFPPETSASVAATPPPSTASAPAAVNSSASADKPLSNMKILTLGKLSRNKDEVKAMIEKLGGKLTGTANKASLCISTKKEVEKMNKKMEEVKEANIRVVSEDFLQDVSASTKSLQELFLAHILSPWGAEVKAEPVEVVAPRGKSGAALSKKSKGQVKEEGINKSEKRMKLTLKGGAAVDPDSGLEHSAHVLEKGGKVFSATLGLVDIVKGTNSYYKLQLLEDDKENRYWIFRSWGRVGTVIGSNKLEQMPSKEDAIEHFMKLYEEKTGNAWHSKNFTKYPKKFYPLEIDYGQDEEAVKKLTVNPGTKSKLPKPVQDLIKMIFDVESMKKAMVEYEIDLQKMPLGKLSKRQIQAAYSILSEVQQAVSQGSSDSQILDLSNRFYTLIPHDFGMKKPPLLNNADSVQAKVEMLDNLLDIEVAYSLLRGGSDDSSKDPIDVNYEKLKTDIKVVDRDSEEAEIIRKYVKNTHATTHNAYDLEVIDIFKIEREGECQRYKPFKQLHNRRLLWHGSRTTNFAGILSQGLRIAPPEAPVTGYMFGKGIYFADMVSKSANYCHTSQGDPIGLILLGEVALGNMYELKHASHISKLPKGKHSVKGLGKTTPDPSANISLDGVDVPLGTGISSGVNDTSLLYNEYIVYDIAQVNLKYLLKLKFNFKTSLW
Chain of PARP2 (Q9UGN5 whole entry): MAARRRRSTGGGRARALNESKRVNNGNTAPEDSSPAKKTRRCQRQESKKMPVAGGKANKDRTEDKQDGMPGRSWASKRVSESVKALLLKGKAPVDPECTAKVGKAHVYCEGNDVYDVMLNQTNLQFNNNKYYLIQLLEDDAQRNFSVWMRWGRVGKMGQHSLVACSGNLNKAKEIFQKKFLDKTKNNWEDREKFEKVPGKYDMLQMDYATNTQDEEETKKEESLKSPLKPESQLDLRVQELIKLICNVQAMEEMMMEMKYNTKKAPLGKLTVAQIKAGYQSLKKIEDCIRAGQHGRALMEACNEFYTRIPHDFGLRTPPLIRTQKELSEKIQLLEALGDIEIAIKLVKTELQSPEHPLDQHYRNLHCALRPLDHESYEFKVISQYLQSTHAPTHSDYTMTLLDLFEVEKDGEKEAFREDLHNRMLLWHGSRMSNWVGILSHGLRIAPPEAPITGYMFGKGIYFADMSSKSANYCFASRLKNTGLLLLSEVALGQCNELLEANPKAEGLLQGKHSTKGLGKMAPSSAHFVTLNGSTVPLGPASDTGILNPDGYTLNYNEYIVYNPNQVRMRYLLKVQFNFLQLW

Row | IC50 [2] [nM] | Structure (SMILES) | IC50 [1] [nM] | other results
1 |  | [2H]C([2H])(c1ccc2c([nH]c(=O)c3cccnc32)c1F)N1CCN(c2ccc(C(=O)NC)nc2F)CC1 [Compound 44] | 0.65 | 
2 | 5.5 | [2H]C([2H])([2H])NC(=O)c1ccc(N2CCN(Cc3ccc4c([nH]c(=O)c5cc(F)cnc54)c3F)CC2)c(Cl)n1 [Compound 52] |  | 
3 |  | CNC(=O)c1ccc(C2=CCN(Cc3ccc4c([nH]c(=O)c5cccn54)c3F)CC2)c(F)n1 [Compound 28] | 0.37 | 
4 | 14 | CNC(=O)c1ccc2c(n1)CC[C@H]1CN(Cc3c(F)cc4nc(C)c(=O)[nH]c4c3F)CCN21 [Trifluoroacetate of compound 19] |  | IC50 [5]: 24.2 nM; IC50 [3]: > 50000 nM
5 |  | [2H]C([2H])(c1ccc2c([nH]c(=O)c3cccnc32)c1F)N1CCN(c2ccc(C(=O)NC)nc2Cl)CC1 [Compound 45] | 0.27 | 
6 |  | CNC(=S)c1ccc(N2CCN(Cc3ccc4nc(C)c(=O)[nH]c4c3F)CC2)c(F)n1 [Trifluoroacetate of compound 5] | 1.2 | 
7 | 7.9 | CNC(=O)c1ccc(N2CCN(Cc3ccc4c([nH]c(=O)c5cc(F)cnc54)c3F)CC2)c(Cl)n1 [Compound 50] | 0.41 | IC50 [3]: > 20000 nM
8 |  | CNC(=O)c1ccc(C2=CCN(Cc3ccc4c([nH]c(=O)c5cccnc54)c3F)CC2)c(F)n1 [Compound 27] | 0.69 | CLint scaled at 1 μM [4]: 9.5 mL/min/kg; half-life at 1 μM [4]: 2.2 h
9 |  | [2H]C([2H])([2H])NC(=O)c1ccc(N2CCN(Cc3ccc4c([nH]c(=O)c5cccnc54)c3F)CC2)c(F)n1 [Compound 29] | 1.14 | CLint scaled at 1 μM [6]: < 38 mL/min/kg
10 |  | CNC(=O)c1ccc(N2CCN(Cc3cc(F)c4nc(C)c(=O)[nH]c4c3F)CC2)c(F)n1 [Trifluoroacetate of compound 22] | 5.73 | IC50 [5]: 4.43 nM

Row | Structure (SMILES) | IC50 [2] [nM] | IC50 [1] [nM] | other results
11 | [2H]C([2H])([2H])NC(=O)c1ccc(C2=CCN(Cc3ccc4c([nH]c(=O)c5cccnc54)c3F)CC2)c(F)n1 [Compound 31] | 4.7 | 0.75 | IC50 [3]: > 20000 nM; CLint scaled at 1 μM [4]: < 8.6 mL/min/kg; half-life at 1 μM [4]: > 2.42 h

From patent US20250295642A1, “FLUOROQUINOXALINONE DERIVATIVE FOR SELECTIVELY INHIBITING PARP1” (MEDSHINE DISCOVERY INC., priority 2022, published 2025)
